Results reported in US9988371B2, “Benzimidazole analogues and related methods” (The Arizona Board of Regents, on Behalf of the University …, priority 2014, dated 2018).

Key:
VEGFR2 = biological target: T1, VEGFR2 (Mus musculus, UniProt P35918); experiment: In vivo target inhibition, pVEGFR2 in RET/C634Y-induced tumors; parameters: species or system nude mice; conditions: 48 hr, 1.0 or 3.0 mg/kg daily
T1 construct: from tissue; host or cells: subcutaneous tumours (NIH3T3 RET/C634Y or NIH3T3 HRAS/G12V) in BALB/c nu/nu mice
Experimental: (§1) FIG. 9: Photographs of blots showing effects of Pz-1 on cellular phosphorylation events in tumors induced in nude mice (from FIG. 8) by injection of NIH3T3 fibroblasts transformed by RET/C634Y or HRAS/G12V. […] Some of the vehicle-treated tumors, at the end of the tumor growth experiment described in FIG. 8, were treated for 48 hr with different doses of Pz-1 (TR) or left untreated (NT). At the end of the treatment, 50 μg of tumor protein lysates were subjected to immunoblotting with anti-phospho-Y1062 (αp1062) and anti-phospho-905 (αpY905) RET antibodies, anti-phospho-MAPK (αpMAPK, T302/Y304), anti-phospho-SHC (αpSHC, Y317), anti-phospho-p70S6K (αpp70S6K, T389), anti-phospho-S6RP (αpS6RP, S235/S236), and anti-phospho-VEGFR2 (αpVEGFR2 pY1175) antibodies. The blots were normalized using anti-RET (αRET), anti-SHC (αSHC), anti-MAPK (αMAPK), anti-p70S6K (αp70S6K), anti-S6RP (αS6RP) or anti-VEGFR2 (αVEGFR2) antibodies.
(§2) Some of the vehicle-treated tumors, at the end of the tumor growth experiment reported in FIG. 8, were treated for 48 hr with different doses of Pz-1 (1.0 or 3.0 mg/kg daily) or left untreated. […]

pMAPK = pMAPK immunoblot in Nthy-ori-3-1 cells; format: cell-based, human; conditions: Nthy-ory-3-1, non-transformed with oncogenic RET
Experimental: FIG. 3: Photographs of blots showing inhibition of RET protein endogenously expressed in TT cells (human MTC cell line expressing RET/C634W) by indicated concentrations of Pz-1 or vehicle (NT: not treated) and reduced effects in thyroid non-transformed Nthy-ori-3-1 cells. Serum-starved human TT and thyroid non-transformed Nthy-ori-3-1 cell lines were treated for 2 hr with indicated concentrations of Pz-1. 50 μg of total cell lysates were subjected to immunoblotting with anti-phospho-Y1062 (αp1062) and anti-phospho-905 (αpY905) RET antibodies, anti-phospho-MAPK (αpMAPK, T302/Y304), and anti-phospho-SHC (αpSHC, Y317) antibodies. The blots were normalized using anti-RET (αRET) and anti-SHC (αSHC).
The inhibition of RET auto-phosphorylation by Pz-1 was measured in several different cell lines including NIH3T3 fibroblasts expressing RET/C634Y or RET/M918T, TT expressing RET/C634W (MTC), Nthy-ory-3-1 (thyroid, non-transformed with RET; negative control), HEK293/RET/PTC1 (CCDC6-RET that can be found in PTC & lung cancer), HEK293/RET-KIF5B (that can be found in lung cancer), HEK293/RET/PTC3 (NCOA4-RET, that can be found in PTC & lung cancer), and HEK293 transfected with RET/C634R-V804M (FIGS. 1-3). […]
Protein lysates were prepared according to standard procedures. […] Immune complexes were detected with the enhanced chemiluminescence kit (Amersham Pharmacia Biotech, Little Chalfort, UK). […]

RET/C634Y = biological target: T2, RET/C634Y (Homo sapiens, UniProt P07949, C634Y); experiment: In vivo target inhibition, RET phosphorylation and signaling in RET/C634Y-induced tumors; parameters: species or system nude mice; conditions: 48 hr, 1.0 or 3.0 mg/kg daily
T2 construct: expressed in transfected cells; host or cells: NIH3T3 fibroblasts, grown as tumours in BALB/c nu/nu mice
Experimental: as §1, §2

CYP3A4 = CYP3A4 (Homo sapiens, UniProt P08684); experiment: CYP inhibition; format: in vitro ADME; conditions: read-out: CYP 3A4 IC50
Sequence of CYP3A4 (P08684 whole entry): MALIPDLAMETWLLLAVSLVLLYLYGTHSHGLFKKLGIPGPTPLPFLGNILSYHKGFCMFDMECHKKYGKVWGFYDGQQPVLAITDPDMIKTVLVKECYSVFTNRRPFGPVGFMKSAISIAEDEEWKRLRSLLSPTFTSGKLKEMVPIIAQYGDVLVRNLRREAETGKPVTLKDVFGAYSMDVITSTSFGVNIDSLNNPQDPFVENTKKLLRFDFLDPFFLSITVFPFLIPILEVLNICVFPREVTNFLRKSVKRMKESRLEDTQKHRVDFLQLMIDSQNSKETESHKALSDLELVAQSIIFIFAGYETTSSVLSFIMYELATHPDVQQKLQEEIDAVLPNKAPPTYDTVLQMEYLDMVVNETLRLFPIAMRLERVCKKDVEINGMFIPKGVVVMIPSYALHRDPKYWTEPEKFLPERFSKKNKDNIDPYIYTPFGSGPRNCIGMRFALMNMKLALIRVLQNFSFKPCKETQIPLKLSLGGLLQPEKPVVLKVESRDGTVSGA

T2 sequence (P07949 29-1072 isoform P07949-2 C634Y limits assumed): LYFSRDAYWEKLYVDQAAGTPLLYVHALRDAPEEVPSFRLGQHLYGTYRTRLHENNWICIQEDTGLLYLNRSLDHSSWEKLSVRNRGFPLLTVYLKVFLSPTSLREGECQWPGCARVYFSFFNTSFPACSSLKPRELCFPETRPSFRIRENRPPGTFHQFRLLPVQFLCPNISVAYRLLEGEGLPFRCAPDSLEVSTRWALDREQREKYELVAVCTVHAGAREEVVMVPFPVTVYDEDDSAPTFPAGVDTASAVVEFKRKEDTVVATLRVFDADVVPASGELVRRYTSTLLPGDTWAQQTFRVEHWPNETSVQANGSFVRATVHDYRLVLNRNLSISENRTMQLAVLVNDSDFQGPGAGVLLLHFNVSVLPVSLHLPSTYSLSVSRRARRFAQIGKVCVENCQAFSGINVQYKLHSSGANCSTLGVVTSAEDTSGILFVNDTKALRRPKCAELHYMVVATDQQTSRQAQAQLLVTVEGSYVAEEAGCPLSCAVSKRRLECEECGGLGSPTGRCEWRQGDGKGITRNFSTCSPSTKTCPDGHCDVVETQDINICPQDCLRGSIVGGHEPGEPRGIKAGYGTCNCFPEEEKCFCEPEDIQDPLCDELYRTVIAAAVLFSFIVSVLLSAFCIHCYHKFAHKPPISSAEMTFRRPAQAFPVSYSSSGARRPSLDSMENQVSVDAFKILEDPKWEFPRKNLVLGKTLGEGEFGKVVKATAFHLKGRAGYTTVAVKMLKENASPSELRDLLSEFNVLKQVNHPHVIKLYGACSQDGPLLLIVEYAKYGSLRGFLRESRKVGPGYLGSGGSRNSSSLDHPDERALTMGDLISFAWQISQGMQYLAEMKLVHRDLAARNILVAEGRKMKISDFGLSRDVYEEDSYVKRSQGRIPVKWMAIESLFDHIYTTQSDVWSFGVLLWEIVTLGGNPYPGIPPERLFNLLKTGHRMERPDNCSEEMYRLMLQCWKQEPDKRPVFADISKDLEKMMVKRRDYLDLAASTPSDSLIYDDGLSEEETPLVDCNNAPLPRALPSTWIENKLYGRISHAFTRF
T1 sequence (P35918 20-1345): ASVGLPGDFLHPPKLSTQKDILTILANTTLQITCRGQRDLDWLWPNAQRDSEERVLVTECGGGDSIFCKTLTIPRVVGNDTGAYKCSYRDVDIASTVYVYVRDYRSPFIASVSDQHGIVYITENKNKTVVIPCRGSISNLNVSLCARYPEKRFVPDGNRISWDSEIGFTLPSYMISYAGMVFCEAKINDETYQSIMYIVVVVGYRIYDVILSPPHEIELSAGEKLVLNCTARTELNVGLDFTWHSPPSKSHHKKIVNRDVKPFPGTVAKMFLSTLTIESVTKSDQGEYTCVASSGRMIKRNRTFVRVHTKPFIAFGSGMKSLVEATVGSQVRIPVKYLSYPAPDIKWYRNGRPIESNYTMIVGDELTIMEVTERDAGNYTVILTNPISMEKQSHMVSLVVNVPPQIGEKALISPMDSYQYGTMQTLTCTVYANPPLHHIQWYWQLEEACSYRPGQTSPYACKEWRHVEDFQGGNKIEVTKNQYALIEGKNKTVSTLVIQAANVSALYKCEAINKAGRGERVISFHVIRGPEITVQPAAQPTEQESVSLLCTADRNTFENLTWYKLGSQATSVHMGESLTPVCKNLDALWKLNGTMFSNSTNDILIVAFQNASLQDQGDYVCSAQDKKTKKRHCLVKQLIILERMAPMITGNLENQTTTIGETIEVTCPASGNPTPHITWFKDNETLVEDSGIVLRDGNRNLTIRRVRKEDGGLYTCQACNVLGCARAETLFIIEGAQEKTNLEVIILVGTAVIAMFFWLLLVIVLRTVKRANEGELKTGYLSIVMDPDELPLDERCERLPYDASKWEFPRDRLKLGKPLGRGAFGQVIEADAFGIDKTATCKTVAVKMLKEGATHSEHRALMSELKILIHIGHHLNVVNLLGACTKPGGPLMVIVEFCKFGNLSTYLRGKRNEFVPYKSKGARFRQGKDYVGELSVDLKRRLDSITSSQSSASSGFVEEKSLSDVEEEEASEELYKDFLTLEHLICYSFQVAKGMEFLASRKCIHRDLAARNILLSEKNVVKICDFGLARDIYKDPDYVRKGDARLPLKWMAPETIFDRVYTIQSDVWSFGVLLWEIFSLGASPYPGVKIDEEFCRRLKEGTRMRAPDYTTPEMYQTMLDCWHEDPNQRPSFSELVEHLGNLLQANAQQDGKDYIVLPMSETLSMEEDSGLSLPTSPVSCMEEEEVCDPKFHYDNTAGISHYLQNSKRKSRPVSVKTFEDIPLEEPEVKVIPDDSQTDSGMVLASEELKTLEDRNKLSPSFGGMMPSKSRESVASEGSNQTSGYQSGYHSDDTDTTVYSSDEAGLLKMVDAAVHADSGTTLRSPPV

Structure (SMILES): Cn1cc(-c2ccc3c(c2)ncn3-c2ccc(CC(=O)Nc3cc(C(C)(C)C)on3)cc2)cn1 [Pz-1, N-(5-(tert-butyl)isoxazol-3-yl)-2-(4-(5-(1-methyl-1H-pyrazol-4-yl)-1H-benzo[d]imidazol-1-yl)phenyl)acetamide]
- pVEGFR2 in tumors (VEGFR2): inhibited
- concentration at which pMAPK was inhibited (pMAPK): 100 nM
- RET phosphorylation and intracellular signaling (SHC, MAPK, p70S6K and S6RP) in tumors (RET/C634Y): inhibited
- IC50 (CYP3A4): 7.4 µM
